Measured values from ChEMBL document CHEMBL5728092, “Benzimidazole derivatives as modulators of ROR-gamma” (2020).

Molecular target: T1, Nuclear receptor ROR-gamma (Homo sapiens, UniProt P51449)
T1 sequence (P51449 whole entry): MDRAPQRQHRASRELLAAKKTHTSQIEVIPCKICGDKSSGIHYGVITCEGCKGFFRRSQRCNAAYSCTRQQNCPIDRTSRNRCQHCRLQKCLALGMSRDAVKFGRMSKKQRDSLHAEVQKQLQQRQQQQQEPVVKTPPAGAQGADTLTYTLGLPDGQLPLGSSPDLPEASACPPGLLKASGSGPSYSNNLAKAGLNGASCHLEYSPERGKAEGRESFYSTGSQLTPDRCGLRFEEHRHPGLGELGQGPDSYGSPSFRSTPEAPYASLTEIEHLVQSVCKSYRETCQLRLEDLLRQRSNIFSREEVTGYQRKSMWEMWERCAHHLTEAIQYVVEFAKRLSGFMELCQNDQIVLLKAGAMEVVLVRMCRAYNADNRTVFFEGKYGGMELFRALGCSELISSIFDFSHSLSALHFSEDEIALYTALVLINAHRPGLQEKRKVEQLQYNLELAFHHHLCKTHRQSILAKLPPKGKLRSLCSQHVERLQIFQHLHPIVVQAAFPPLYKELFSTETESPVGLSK
Assay: Binding Assay : Compounds described herein were tested for ability to bind to RORγ in a cell-free competition assay with commercially available radio-ligand (RL), 25-hydroxy [26,27-3H]-cholesterol (PerkinElmer, Cat. #NET674250UC), for a ligand binding site on a recombinant RORγ Ligand Binding Domain (LBD) protein expressed as a 6×His-Glutathione-S-Transferase (GST) fusion. The assay was performed in 96-well SPA plates (PerkinElmer, Cat. #1450-401) in 50 mM HEPES buffer, pH 7.4, containing 150 mM NaCl, 5 mM MgCl2, 10% (v/v) glycerol, 2 mM CHAPS, 0.5 mM β-octylglucopyranoside and 5 mM DTT. Tested compounds were dissolved in DMSO, and semi-log (3.162×) serial dilutions of the compounds were prepared in the same solvent. Two μL of the DMSO solutions were mixed with 28 μL of 8.6 nM 25-hydroxy [26,27-3H]-cholesterol and 50 μL of 24 nM RORγ LBD. The plate was shaken at 700 rpm for 20 min and incubated for 10 min at rt, after which 40 μL of poly-Lys YSi SPA beads (PerkinElmer, Cat. #RPNQ0010) were added to achieve […] of the beads per well. The plate was incubated on an orbital shaker for 20 min and then for 10 min without agitation at rt. SPA signal for tritium beta radiation was registered on PerkinElmer Microbeta plate reader. Percent inhibition values were calculated based on the high signal obtained with DMSO control and the low signal observed with 10 μM standard RORγ inverse agonist T0901317 (SigmaAldrich, Cat. #T2320). The percent inhibition vs. concentration data were fit into a four-parameter model, and IC50 values were calculated from the fit as the concentrations corresponding to the inflection points on the dose-response curves.

Structure (SMILES): CCS(=O)(=O)c1ccc([C@H](CO)NC(=O)c2ccc3c(c2)nc(C2CC2)n3Cc2cccc3c2OC(F)(F)O3)cc1
- Ki: < 100 nM

Structure (SMILES): CCS(=O)(=O)c1ccc(CNC(=O)c2ccc3c(c2)nc(C(F)(F)F)n3Cc2cccc3c2OC(F)(F)O3)[n+]([O-])c1
- Ki: < 100 nM

Structure (SMILES): CCS(=O)(=O)c1ccc([C@H](CO)NC(=O)c2ccc3c(c2)nc(C2(F)CCC2)n3Cc2cccc3c2OC(F)(F)O3)cc1
- Ki: < 100 nM
